Laboratory results reported in patent US20240308968A1, “FUNGICIDAL SUBSTITUTED HETEROCYCLES” (FMC Corporation, priority 2021, published 2024).

Tests used:
Assay type in all cases: in vivo
Zymoseptoria tritici = assay: Test A: preventive spray on wheat seedlings, wheat leaf blotch disease rating; conditions: 100 = 100% disease control, 0 = no control; for pest or weed control at 50 ppm: Zymoseptoria tritici, 456 h
Summary of the method: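 Compounds in acetone/water (50/50) with 50–250 ppm PEG400, sprayed to run-off on wheat seedlings. Inoculated next day with Z. tritici spores, 48 h saturated atmosphere at 24 °C, then 17 days at 20 °C before disease rating.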

[1] = system: Puccinia recondita f. sp. Tritici; assay: Test B: preventive spray on wheat seedlings, wheat leaf rust disease rating; conditions: 100 = 100% disease control, 0 = no control; for pest or weed control at 50 ppm: Puccinia recondita, 192 h
Summary of the method: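 Compounds in acetone/water (50/50) with 50-250 ppm PEG400 sprayed to run-off on wheat seedlings; inoculated with P. recondita spores next day. Held 24 h saturated at 20° C., then 7 days in growth chamber at 20° C. before rating; 100 = full control, 0 = none versus controls.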

[2] = system: Blumeria graminis f. sp. Tritici; assay: Test C: preventive spray on wheat seedlings, wheat powdery mildew disease rating; conditions: 100 = 100% disease control, 0 = no control; for pest or weed control at 50 ppm: Blumeria graminis, 192 h
Summary of the method: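 Wheat seedlings sprayed to run-off with test suspension (acetone 3% dissolution, then acetone/water 50/50 with 50–250 ppm PEG400), inoculated next day with Blumeria graminis spore dust. Held 8 days at 20° C in growth chamber, then visually rated (100 = full control, 0 = none, relative to controls).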

Phakopsora pachyrhizi = assay: Test D: preventive spray on soybean seedlings, Asian soybean rust disease rating; conditions: 100 = 100% disease control, 0 = no control; for pest or weed control at 50 ppm: Phakopsora pachyrhizi, 216 h
Summary of the method: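 Compounds in acetone/water (50/50) with 50–250 ppm PEG400 sprayed to run-off on soybean seedlings; inoculated next day with P. pachyrhizi spores, held 24 h saturated at 22° C, then 8 days at 22° C before visual disease rating.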

Botrytis cinerea = assay: Test E: preventive spray on tomato seedlings, tomato Botrytis disease rating; conditions: 100 = 100% disease control, 0 = no control; for pest or weed control at 50 ppm: Botrytis cinerea, 120 h
Summary of the method: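 Tomato seedlings sprayed to run-off with compound suspended in acetone/water with PEG400 surfactant, then inoculated next day with Botrytis cinerea spores. Held 48 h saturated at 20 °C, then 3 days at 24 °C; disease rated visually, 0 to 100% control relative to controls.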

Alternaria solani = assay: Test F: preventive spray on tomato seedlings, tomato early blight disease rating; conditions: 100 = 100% disease control, 0 = no control; for pest or weed control at 50 ppm: Alternaria solani, 120 h
Summary of the method: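 Tomato seedlings were sprayed to run-off with compound suspensions in ppm (acetone/water with PEG400 surfactant) and inoculated with Alternaria solani spores the next day. Plants were held 48 h saturated at 27 °C, then 3 days at 20 °C. Disease was rated visually, with 100 as full control and 0 as none, relative to controls.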

With `COc1ccc(Cl)c(-n2nc(Br)c(=O)c(Br)c2-c2ccc(F)cc2Cl)c1` [Compound 102] the “Test A disease control rating” value (Zymoseptoria tritici; 50 ppm) was 97%, the “Test B disease control rating” value ([1]; 50 ppm) was 99% and the “Test C disease control rating” value ([2]; 50 ppm) was 0%. The “Test D disease control rating” value (Phakopsora pachyrhizi; 50 ppm) was 99%, the “Test E disease control rating” value (Botrytis cinerea; 50 ppm) was 99% and the “Test F disease control rating” value (Alternaria solani; 50 ppm) was 88%.
With `COc1cc(OC)cc(-c2nc(C)nc(C)c2-c2c(F)cc(F)cc2F)c1` [Compound 53, 4-(3,5-dimethoxyphenyl)-2,6-dimethyl-5-(2,4,6-trifluorophenyl)pyrimidine] the pest or weed control at 50 ppm (Zymoseptoria tritici; 50 ppm) was 100%, the pest or weed control at 50 ppm ([1]; 50 ppm) was 100% and the pest or weed control at 50 ppm ([2]; 50 ppm) was 100%. It also gave a pest or weed control at 50 ppm (Phakopsora pachyrhizi; 50 ppm) of 97%, a pest or weed control at 50 ppm (Botrytis cinerea; 50 ppm) of 96% and a pest or weed control at 50 ppm (Alternaria solani; 50 ppm) of 97%.
`CCc1nc(C)nc(-c2cc(OC)cc(OC)c2Cl)c1-c1ccc(F)cc1Cl` [Compound 56, 4-(2-chloro-3,5-dimethoxyphenyl)-5-(2-chloro-4-fluorophenyl)-6-ethyl-2-methylpyrimidine] was tested, and the pest or weed control at 50 ppm (Zymoseptoria tritici; 50 ppm) was 100%, the pest or weed control at 50 ppm ([1]; 50 ppm) was 100% and the pest or weed control at 50 ppm ([2]; 50 ppm) was 100%. For the same compound, the pest or weed control at 50 ppm (Phakopsora pachyrhizi; 50 ppm) was 88%, the pest or weed control at 50 ppm (Botrytis cinerea; 50 ppm) was 94% and the pest or weed control at 50 ppm (Alternaria solani; 50 ppm) was 91%.
`COc1cc(OC)cc(-n2nc(CF)c(=O)c(C)c2-c2ccc(F)cc2Cl)c1` [Compound 90] was tested, and the “Test A disease control rating” value (Zymoseptoria tritici; 50 ppm) was 99%, the “Test B disease control rating” value ([1]; 50 ppm) was 100% and the “Test C disease control rating” value ([2]; 50 ppm) was 97%. For the same compound, the “Test D disease control rating” value (Phakopsora pachyrhizi; 50 ppm) was 100%, the “Test E disease control rating” value (Botrytis cinerea; 50 ppm) was 99% and the “Test F disease control rating” value (Alternaria solani; 50 ppm) was 99%.
For `COc1cc(OC)c(Cl)c(-n2nc(C)c(=O)c(C)c2-c2ccc(F)cc2Cl)c1` [Compound 84], the “Test A disease control rating” value (Zymoseptoria tritici; 50 ppm) was 100%, the “Test B disease control rating” value ([1]; 50 ppm) was 100% and the “Test C disease control rating” value ([2]; 50 ppm) was 99%. For the same compound, the “Test D disease control rating” value (Phakopsora pachyrhizi; 50 ppm) was 100%, the “Test E disease control rating” value (Botrytis cinerea; 50 ppm) was 94% and the “Test F disease control rating” value (Alternaria solani; 50 ppm) was 100%.
In the case of `COc1cc(OC)cc(-c2nc(C)ncc2-c2c(F)cc(F)cc2F)c1` [Compound 41], the “Test A disease control rating” value (Zymoseptoria tritici; 250 ppm) is reported as 84%, the “Test B disease control rating” value ([1]; 250 ppm) is reported as 0% and the “Test C disease control rating” value ([2]; 250 ppm) is reported as 91%. For the same compound, the “Test D disease control rating” value (Phakopsora pachyrhizi; 250 ppm) was 0%, the “Test E disease control rating” value (Botrytis cinerea; 250 ppm) was 17% and the “Test F disease control rating” value (Alternaria solani; 250 ppm) was 0%.
In the case of `COc1cc(OC)cc(-n2c(-c3ccc(F)cc3Cl)c(C)c(=O)n(C)c2=O)c1` [Compound 39, 6-(2-chloro-4-fluorophenyl)-1-(3,5-dimethoxyphenyl)-3,5-dimethyl-2,4(1H,3H)-pyrimidinedione], the pest or weed control at 50 ppm (Zymoseptoria tritici; 50 ppm) is reported as 0%, the pest or weed control at 50 ppm ([1]; 50 ppm) is reported as 100% and the pest or weed control at 50 ppm ([2]; 50 ppm) is reported as 98%. It also gave a pest or weed control at 50 ppm (Phakopsora pachyrhizi; 50 ppm) of 73%, a pest or weed control at 50 ppm (Botrytis cinerea; 50 ppm) of 90% and a pest or weed control at 50 ppm (Alternaria solani; 50 ppm) of 9%.
In the case of `CCOC(=O)c1nn(-c2cc(OC)ccc2Cl)c(-c2ccc(F)cc2F)c(C(=O)OCC)c1=O` [Compound 81], the “Test A disease control rating” value (Zymoseptoria tritici; 50 ppm) is reported as 0%, the “Test B disease control rating” value ([1]; 50 ppm) is reported as 19% and the “Test C disease control rating” value ([2]; 50 ppm) is reported as 0%. For the same compound, the “Test D disease control rating” value (Phakopsora pachyrhizi; 50 ppm) was 0%, the “Test E disease control rating” value (Botrytis cinerea; 50 ppm) was 0% and the “Test F disease control rating” value (Alternaria solani; 50 ppm) was 0%.
With `COc1cc(OC)cc(-c2nc(C)nc(Cl)c2-c2ccc(F)cc2Cl)c1` [Compound 52] the “Test A disease control rating” value (Zymoseptoria tritici; 250 ppm) was 100%, the “Test B disease control rating” value ([1]; 250 ppm) was 89% and the “Test C disease control rating” value ([2]; 250 ppm) was 99%. For the same compound, the “Test D disease control rating” value (Phakopsora pachyrhizi; 250 ppm) was 13%, the “Test E disease control rating” value (Botrytis cinerea; 250 ppm) was 94% and the “Test F disease control rating” value (Alternaria solani; 250 ppm) was 26%.
With `COc1ccc(Cl)c(-n2nc(NC(C)=O)c(=O)cc2-c2ccc(F)cc2Cl)c1` [Compound 135] the “Test A disease control rating” value (Zymoseptoria tritici; 50 ppm) was 41%, the “Test B disease control rating” value ([1]; 50 ppm) was 89% and the “Test C disease control rating” value ([2]; 50 ppm) was 0%. The “Test D disease control rating” value (Phakopsora pachyrhizi; 50 ppm) was 0%, the “Test E disease control rating” value (Botrytis cinerea; 50 ppm) was 94% and the “Test F disease control rating” value (Alternaria solani; 50 ppm) was 0%.
For `COc1cc(-c2cc(C#N)c(=O)n(C)c2-c2c(F)cc(F)cc2F)cc(OC)c1Cl` [Compound 71, 5-(4-chloro-3,5-dimethoxyphenyl)-1,2-dihydro-1-methyl-2-oxo-6-(2,4,6-trifluorophenyl)-3-pyridinecarbonitrile], the pest or weed control at 50 ppm (Zymoseptoria tritici; 50 ppm) was 87%, the pest or weed control at 50 ppm ([1]; 50 ppm) was 99% and the pest or weed control at 50 ppm ([2]; 50 ppm) was 47%. For the same compound, the pest or weed control at 50 ppm (Phakopsora pachyrhizi; 50 ppm) was 92%, the pest or weed control at 50 ppm (Botrytis cinerea; 50 ppm) was 63% and the pest or weed control at 50 ppm (Alternaria solani; 50 ppm) was 0%.
With `CCn1c(-c2ccc(F)cc2Cl)c(-c2cc(OC)ccc2Cl)cc(C#N)c1=O` [Compound 159] the “Test A disease control rating” value (Zymoseptoria tritici; 50 ppm) was 100%, the “Test B disease control rating” value ([1]; 50 ppm) was 100% and the “Test C disease control rating” value ([2]; 50 ppm) was 27%. The “Test D disease control rating” value (Phakopsora pachyrhizi; 50 ppm) was 77%, the “Test E disease control rating” value (Botrytis cinerea; 50 ppm) was 99% and the “Test F disease control rating” value (Alternaria solani; 50 ppm) was 94%.
For `Cc1c(-c2ccc(F)cc2Cl)c(-c2cccs2)nn(C)c1=O` [Compound 9], the “Test A disease control rating” value (Zymoseptoria tritici; 50 ppm) was 100%, the “Test B disease control rating” value ([1]; 50 ppm) was 79% and the “Test C disease control rating” value ([2]; 50 ppm) was 95%. For the same compound, the “Test D disease control rating” value (Phakopsora pachyrhizi; 50 ppm) was 8%, the “Test E disease control rating” value (Botrytis cinerea; 50 ppm) was 98% and the “Test F disease control rating” value (Alternaria solani; 50 ppm) was 16%.
`CCc1nc(C)nc(-c2cc(OC)cc(OC)c2Cl)c1-c1c(F)cccc1F` [Compound 57, 4-(2-chloro-3,5-dimethoxyphenyl)-5-(2,6-difluorophenyl)-6-ethyl-2-methylpyrimidine] showed a pest or weed control at 50 ppm (Zymoseptoria tritici; 50 ppm) of 100%, a pest or weed control at 50 ppm ([1]; 50 ppm) of 100% and a pest or weed control at 50 ppm ([2]; 50 ppm) of 100%. For the same compound, the pest or weed control at 50 ppm (Phakopsora pachyrhizi; 50 ppm) was 73%, the pest or weed control at 50 ppm (Botrytis cinerea; 50 ppm) was 96% and the pest or weed control at 50 ppm (Alternaria solani; 50 ppm) was 97%.
With `COc1cc(OC)c(Cl)c(-c2nc(C)nc(C)c2-c2c(F)cc(F)cc2F)c1` [Compound 54, 4-(2-chloro-3,5-dimethoxyphenyl)-2,6-dimethyl-5-(2,4,6-trifluorophenyl)pyrimidine] the pest or weed control at 50 ppm (Zymoseptoria tritici; 50 ppm) was 100%, the pest or weed control at 50 ppm ([1]; 50 ppm) was 100% and the pest or weed control at 50 ppm ([2]; 50 ppm) was 100%. It also gave a pest or weed control at 50 ppm (Phakopsora pachyrhizi; 50 ppm) of 100%, a pest or weed control at 50 ppm (Botrytis cinerea; 50 ppm) of 97% and a pest or weed control at 50 ppm (Alternaria solani; 50 ppm) of 99%.
In the case of `Cc1c(-c2nn(C)c(=O)c(C)c2-c2ccc(F)cc2Cl)csc1Br` [Compound 15], the “Test A disease control rating” value (Zymoseptoria tritici; 50 ppm) is reported as 100%, the “Test B disease control rating” value ([1]; 50 ppm) is reported as 100% and the “Test C disease control rating” value ([2]; 50 ppm) is reported as 99%. The “Test D disease control rating” value (Phakopsora pachyrhizi; 50 ppm) was 24%, the “Test E disease control rating” value (Botrytis cinerea; 50 ppm) was 92% and the “Test F disease control rating” value (Alternaria solani; 50 ppm) was 99%.
